Data as given in article PMC4804155 (Chembiochem : a European journal of chemical biology, 2015).
Where two headings read alike, the source gives them in different places.

How the values were obtained:
[1] = target: T1, MOF (male absent on the first, MYST1, HAT8) (Homo sapiens, UniProt Q9H7Z6, I317A); test: CPM fluorogenic enzyme kinetics, Km; assay type: biochemical
T1 sequence (Q9H7Z6 174-447 I317A limits assumed): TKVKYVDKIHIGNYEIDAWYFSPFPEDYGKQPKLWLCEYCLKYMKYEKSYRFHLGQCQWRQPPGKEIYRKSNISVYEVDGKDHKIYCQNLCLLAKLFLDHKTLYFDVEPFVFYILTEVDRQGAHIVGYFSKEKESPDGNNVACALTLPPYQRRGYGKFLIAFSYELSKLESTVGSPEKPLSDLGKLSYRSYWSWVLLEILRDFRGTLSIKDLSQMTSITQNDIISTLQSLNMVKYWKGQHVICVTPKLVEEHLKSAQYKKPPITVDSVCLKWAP

[2] = target: T1, MOF (male absent on the first, MYST1, HAT8)
[3] = target: MOF (male absent on the first, MYST1, HAT8) (Homo sapiens, UniProt Q9H7Z6)
MOF (male absent on the first, MYST1, HAT8) (Homo sapiens, UniProt Q9H7Z6), sequence (Q9H7Z6 2-458): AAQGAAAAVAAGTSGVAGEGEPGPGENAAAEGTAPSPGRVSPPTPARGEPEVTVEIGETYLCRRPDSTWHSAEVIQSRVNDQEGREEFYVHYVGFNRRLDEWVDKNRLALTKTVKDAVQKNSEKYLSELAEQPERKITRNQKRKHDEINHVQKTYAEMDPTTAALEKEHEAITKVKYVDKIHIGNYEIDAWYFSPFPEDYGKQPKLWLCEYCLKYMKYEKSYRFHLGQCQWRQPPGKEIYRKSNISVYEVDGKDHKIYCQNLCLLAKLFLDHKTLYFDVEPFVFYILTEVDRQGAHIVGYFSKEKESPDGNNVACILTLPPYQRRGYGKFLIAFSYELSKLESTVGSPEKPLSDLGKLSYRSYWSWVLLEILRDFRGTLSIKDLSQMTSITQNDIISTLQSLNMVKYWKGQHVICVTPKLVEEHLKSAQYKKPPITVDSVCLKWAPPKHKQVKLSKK

Compound | Km [1] [µM] | Km [2] [µM] | Km [3] [µM]
CC(C)(COP(=O)(O)OP(=O)(O)OC[C@H]1O[C@@H](n2cnc3c(N)ncnc32)[C@H](O)[C@@H]1OP(=O)(O)O)[C@@H](O)C(=O)NCCC(=O)NCCSC(=O)CCN=[N+]=[N-] [3-azidopropanoyl CoA] | 2.7 ± 0.2 |  | 
CC(=O)SCCNC(=O)CCNC(=O)[C@H](O)C(C)(C)COP(=O)(O)OP(=O)(O)OC[C@H]1O[C@@H](n2cnc3c(N)ncnc32)[C@H](O)[C@@H]1OP(=O)(O)O [acetyl-CoA] |  | 3.5 ± 0.2 | 1.3 ± 0.1
